Measurements taken from PMC9019100, “Development of NanoLuc-targeting protein degraders and a universal reporter system to benchmark tag-targeted degradation platforms” (Nature Communications, 2022).
“And” between values parts separate entries of the source, which are not always exact repeats. Equal entries are not always repeated. Where two headings read alike, the source gives them in different places.

Assays:
[1] = test system: wild-type HT29 cells; test: Necroptosis assay (PI exclusion, flow cytometry), wild-type HT29 cells, TNF+SM+IDN; type: cell-based, human; details: Unt (no death stimulus); sheet S5F
Procedure, shortened: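 HT29 cells were pretreated 5 h with 500 nM degrader or DMSO, then stimulated 24 h with TNF (100 ng/mL), Smac mimetic compound A (500 nM–1 µM) and emricasan (IDN, 5 µM). Cell death was scored by flow cytometry as PI uptake (10 μg/mL PI, 10,000 events/sample), N = 3 replicates.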

[2] = test system: MLKL^−/− HT29 cells expressing untagged MLKL; type: cell-based; details: MLKL-/- + MLKL, independent experiments
Procedure: Cell death was assessed by flow cytometric analysis of PI exclusion. […] Cell death was assessed by flow cytometric analysis of PI exclusion. […] Cell death was assessed by flow cytometric analysis of PI exclusion. e N = 4, f N = 3 independent experiments (symbols), EB represent mean ± SD. g Western from MLKL^−/−CASP8^−/− HT29 cells stably expressing the doxycycline-inducible C-terminal fusion protein, MLKL-NanoLuc (MLKL-NLuc) and constitutively expressing the C-terminal fusion protein caspase-8-FKBP^F36V. […] Cell death was assessed using an IncuCyte and Cytotox-Red uptake. N = 3 independent experiments, one representative experiment shown, EB represent mean ± SD.
Degrader compounds or a DMSO vehicle control were added for 5 h, as stated in the Fig. legends. Cells were detached using Trypsin-EDTA (Merck) and resuspended in cell supernatants containing 10 μg/mL propidium iodide (PI). PI exclusion analysis was performed using an LSR II flow cytometer (Becton Dickinson, NJ) with 10,000 single-cell events per sample. Flow cytometry data were analysed using WEASEL version 2.7 software (Frank Battye).

[3] = target: T1, Halo-EGFP-NanoLuc-FKBP^F36V (H-E-N-F) fusion protein (UniProt P0A3G2+P62942+Q9GV45, A155T/A167V/A172T/A224E/A31E/A60N/A81I/C128F/C176G/D78G/E160K/E257K/F37V/F95D/H272N/I117V/K175M/K195N/K70R/L47V/L54V/L88M/L99Q/M102K/N193R/N227D/P142E/P291S/Q151K/Q38R/Q45L/S2A/S58T/T264A/V71I/Y165I/Y273L/Y87F); type: cell-based; details: replicate wells; for Blank corrected Raw Data (470-80): +dox, PROTAC 500nM
Target sequence in this assay (Q9GV45 other isoform, or with tags, fused parts or gaps with the stated changes): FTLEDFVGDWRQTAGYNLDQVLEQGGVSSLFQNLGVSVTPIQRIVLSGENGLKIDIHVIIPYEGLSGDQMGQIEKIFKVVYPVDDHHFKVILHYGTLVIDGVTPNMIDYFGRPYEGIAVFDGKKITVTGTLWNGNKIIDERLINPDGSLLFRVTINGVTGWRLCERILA
Target sequence in this assay (P0A3G2 other isoform, or with tags, fused parts or gaps with the stated changes): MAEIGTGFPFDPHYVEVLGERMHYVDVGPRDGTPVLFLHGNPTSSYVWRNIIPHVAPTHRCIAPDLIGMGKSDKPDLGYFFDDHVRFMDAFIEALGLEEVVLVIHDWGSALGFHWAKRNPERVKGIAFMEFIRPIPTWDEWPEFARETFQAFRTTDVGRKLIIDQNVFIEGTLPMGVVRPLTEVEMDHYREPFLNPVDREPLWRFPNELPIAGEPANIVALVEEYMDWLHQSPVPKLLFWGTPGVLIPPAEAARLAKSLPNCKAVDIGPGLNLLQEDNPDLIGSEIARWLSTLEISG
Target sequence in this assay (P62942 whole entry F37V, the tested form may be a part): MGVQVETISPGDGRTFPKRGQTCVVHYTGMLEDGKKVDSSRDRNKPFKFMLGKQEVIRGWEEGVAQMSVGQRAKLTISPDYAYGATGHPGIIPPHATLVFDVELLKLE

[4] = test system: MLKL^−/−CASP8^−/− HT29 cells expressing MLKL-NLuc and caspase-8-FKBP^F36V; details: TNF+SM
[5] = target: T1, Halo-EGFP-NanoLuc-FKBP^F36V (H-E-N-F) fusion protein; type: cell-based; design: expressed in transfected cells; host or cells: immortalized mouse dermal fibroblasts (iMDFs), ubiquitin promoter, constitutive; details: 500 nM
Target sequence in this assay (P0A3G2 other isoform, or with tags, fused parts or gaps with the stated changes): as the sequence (P0A3G2 other isoform, or with tags, fused parts or gaps with the stated changes) above
Target sequence in this assay (Q9GV45 other isoform, or with tags, fused parts or gaps with the stated changes): as the sequence (Q9GV45 other isoform, or with tags, fused parts or gaps with the stated changes) above
Target sequence in this assay (P62942 whole entry F37V, the tested form may be a part): as the sequence (P62942 whole entry F37V, the tested form may be a part) above

## CCc1cccc(N(CC)C(=O)Cn2c(C(=O)NC3CCC(C(=O)NCCCCCCCC(=O)NCCCCNc4cccc5c4C(=O)N(C4CCC(=O)NC4=O)C5=O)CC3)cc3ccccc32)c1 (stereo not shown) [NC4]
[1]
  viable cells (PI exclusion): 70.2 and 66.8 and 70.5
[2]; 3.9nM
  Live cells (%PI negative) after TNF+911+zVAD: 6.4 and 6.9 and 5.3
[2]; 7.8nM
  Live cells (%PI negative) after TNF+911+zVAD: 6.6 and 6 and 6.3
[2]; 31.25nM
  Live cells (%PI negative) after TNF+911+zVAD: 6.5 and 6 and 7.1
[2]; 62.5nM
  Live cells (%PI negative) after TNF+911+zVAD: 6 and 5.5 and 7.5
[2]; 250nM
  Live cells (%PI negative) after TNF+911+zVAD: 4.9 and 6.4 and 6.1
[2]; 500nM
  Live cells (%PI negative) after TNF+911+zVAD: 4 and 4.7 and 6.1
[2]; 1000nM
  Live cells (%PI negative) after TNF+911+zVAD: 5.9 and 5.2 and 6.1
[3]; 62.5nM, 2h
  NanoLuc luminescence, Blank corrected (470-80): 4980 and 5006 and 4972
[3]; 62.5nM, 4h
  NanoLuc luminescence, Blank corrected (470-80): 5208 and 3005 and 4773 and 4875
[3]; 62.5nM, 6h
  NanoLuc luminescence, Blank corrected (470-80): 2838 and 2892 and 3957
[3]; 62.5nM, 8h
  NanoLuc luminescence, Blank corrected (470-80): 2020 and 2221 and 2420
[3]; 62.5nM, 10h
  NanoLuc luminescence, Blank corrected (470-80): 1449 and 1207 and 1837
[3]; 250nM, 2h
  NanoLuc luminescence, Blank corrected (470-80): 1535 and 1072 and 1399
[3]; 250nM, 4h
  NanoLuc luminescence, Blank corrected (470-80): 1441 and 855 and 1118
[3]; 250nM, 6h
  NanoLuc luminescence, Blank corrected (470-80): 752 and 593 and 657 and 1043
[3]; 250nM, 8h
  NanoLuc luminescence, Blank corrected (470-80): 745 and 600 and 575
[3]; 250nM, 10h
  NanoLuc luminescence, Blank corrected (470-80): 292 and 341 and 527
[3]; 500nM, 2h
  NanoLuc luminescence, Blank corrected (470-80): 894 and 649 and 1055 and 784
[3]; 500nM, 4h
  NanoLuc luminescence, Blank corrected (470-80): 690 and 518 and 723
[3]; 500nM, 6h
  NanoLuc luminescence, Blank corrected (470-80): 437 and 546 and 398 and 460
[3]; 500nM, 8h
  NanoLuc luminescence, Blank corrected (470-80): 261 and 295 and 351
[3]; 500nM, 10h
  NanoLuc luminescence, Blank corrected (470-80): 255 and 239 and 173
[3]; DMSO (control) co-treatment
  Blank corrected Raw Data (470-80): 1248 and 1289 and 1195 and 929
[3]; co-treatment with MG132 (10uM)
  Blank corrected Raw Data (470-80): 3006 and 3126 and 2730 and 2907
[4]; elapsed 0 h
  Cytotox-Red uptake (cell death), IncuCyte: 176
[4]; elapsed 0.5 h
  Cytotox-Red uptake (cell death), IncuCyte: 196.812
[4]; elapsed 1 h
  Cytotox-Red uptake (cell death), IncuCyte: 269.75
[4]; elapsed 2 h
  Cytotox-Red uptake (cell death), IncuCyte: 726.062
[4]; elapsed 3 h
  Cytotox-Red uptake (cell death), IncuCyte: 1441.19
[4]; elapsed 4 h
  Cytotox-Red uptake (cell death), IncuCyte: 2153.69
[4]; elapsed 5 h
  Cytotox-Red uptake (cell death), IncuCyte: 2734
[4]; elapsed 6 h
  Cytotox-Red uptake (cell death), IncuCyte: 3193.62
[4]; elapsed 6.5 h
  Cytotox-Red uptake (cell death), IncuCyte: 3375.81
[4]; elapsed 7 h
  Cytotox-Red uptake (cell death), IncuCyte: 3569.31
[4]; elapsed 7.5 h
  Cytotox-Red uptake (cell death), IncuCyte: 3696.25
[4]; elapsed 8 h
  Cytotox-Red uptake (cell death), IncuCyte: 3846.56
[4]; elapsed 9 h
  Cytotox-Red uptake (cell death), IncuCyte: 4053
[4]; elapsed 9.5 h
  Cytotox-Red uptake (cell death), IncuCyte: 4125.31
[4]; elapsed 10 h
  Cytotox-Red uptake (cell death), IncuCyte: 4221.25
[4]; elapsed 10.5 h
  Cytotox-Red uptake (cell death), IncuCyte: 4287.44
[4]; elapsed 11 h
  Cytotox-Red uptake (cell death), IncuCyte: 4360
[4]; elapsed 12 h
  Cytotox-Red uptake (cell death), IncuCyte: 4474.25
[4]; elapsed 13 h
  Cytotox-Red uptake (cell death), IncuCyte: 4557.19
[4]; elapsed 13.5 h
  Cytotox-Red uptake (cell death), IncuCyte: 4775.06
[4]; elapsed 14 h
  Cytotox-Red uptake (cell death), IncuCyte: 4760.06
[4]; elapsed 14.5 h
  Cytotox-Red uptake (cell death), IncuCyte: 4770
[4]; elapsed 15 h
  Cytotox-Red uptake (cell death), IncuCyte: 4767.69
[4]; elapsed 16 h
  Cytotox-Red uptake (cell death), IncuCyte: 4884.75
[4]; elapsed 17 h
  Cytotox-Red uptake (cell death), IncuCyte: 4901.56
[4]; elapsed 18 h
  Cytotox-Red uptake (cell death), IncuCyte: 4950.62
[4]; elapsed 19 h
  Cytotox-Red uptake (cell death), IncuCyte: 4959.75
[4]; elapsed 19.5 h
  Cytotox-Red uptake (cell death), IncuCyte: 4920.31
[5]; 5, 24 or 48 h
  time up to which degradation was seen, degrader left in the medium: up to 24 h
[5]; 24 or 48 h after removal
  time up to which degradation was maintained, degrader removed at 5 h: not maintained
